Reference: patent publication US6841169B2, “Stabilizer for pharmacons” (Rijksuniversiteit Groningen, priority 2001, dated 2005)

Experiments:
alkaline phosphatase = conditions: for Activity alkaline phosphatase after freeze-drying and 6 days at 0% RH and 60° C.: alkaline phosphatase to stabilizer 1 to 9, average of 4 independent experiments; for Activity alkaline phosphatase directly after freeze drying: alkaline phosphatase to stabilizer 1 to 9 by weight, average of 2 independent experiments
Experimental: Alkaline phosphatase with and without stabilizer was dissolved in a 0.05 M 2-amino-2-methyl-1,3-propanediol solution in water, pH 9.8. The concentration of alkaline phosphatase was 2.5 mg/mL in all cases. […] Trehalose and glucose were used as positive and negative control, respectively. The weight ratio of alkaline phosphatase to stabilizer was 1 to 9 in all cases. Of the solutions, 2 mL were transferred to glass sample vessels of a diameter of about 2 cm. The sample vessels were transferred to liquid nitrogen. After the solution had frozen completely, the sample vessels were transferred to a Christ freeze-drier, model Alpha 2-4, at a plate temperature of −30° C., followed by freeze-drying at a condenser temperature of −53° C. and a pressure of 0.220 mbar for 18 hours. Then, during 6 hours, the plate temperature and the pressure were gradually raised to 20° C. and 0.520 mbar, respectively. Thereafter the freeze-drying process was continued for 20 more hours.
Two series of experiments were carried out. In the first series, the samples were left to stand for 6 days at 0% relative humidity (RH) and 60° C., whereafter the activity of the protein was determined. In the second series of experiments, the samples were left to stand in an exsiccator above silica gel (0% RH) or in controlled-climate cabinets (45% and 60% RH) at 20° C. At different times, the activity of the protein was determined.
The activity of alkaline phosphatase was determined as follows. The freeze-dried samples were reconstituted with water. To 50 μl of the solution obtained, there were added 905 μL of a 0.05 M 2-amino-2-methyl-1,3-propanediol solution in water, pH 9.8, and 20 μL of a 100 mM MgCl2 solution in water. Next, 50 μL of a freshly prepared solution of 10 mg phosphatase substrate (para-nitrophenyl phosphate) per mL water were added. The mixture was vortexed and then incubated at 37° C. After 30 minutes, the reaction was stopped by addition of 5.0 mL of a 0.1 N solution of NaOH in water. The extinction of the solution obtained was measured at 405 nm. A calibration line was made using freshly prepared solutions of alkaline phosphatase in 0.05 M 2-amino-2-methyl-1,3-propanediol in water, pH 9.8, of known concentrations.

[1] = from scientific publications; cited from earlier work
[2] = Storage of sugar glasses at 20° C. at raised relative air humidity (deliquescence); assay type: physicochemical; conditions: 45% relative air humidity
Excerpt: In practice, a sugar glass will never be completely anhydrous. This is for instance the consequence of uptake of water from the air. […] The extent of water uptake depends on the hygroscopicity of the material and of the relative degree of air humidity.

[3] = Freeze-drying at a sample temperature of −16° C. (cake formation); assay type: physicochemical; conditions: sample temperature −16° C.
Experimental: This last was tested in experiments with trehalose and inulin. Freeze-drying was done at a sample temperature of −16° C. […] Accordingly, inulin can be freeze-dried under less stringent conditions.

Structure (SMILES) | Activity alkaline phosphatase after freeze-drying and 6 days at 0% RH and 60° C. (alkaline phosphatase) [%] | Activity alkaline phosphatase directly after freeze drying (alkaline phosphatase) [%] | Activity of the protein after 4 weeks at 45% RH (in words) (alkaline phosphatase; freeze-dried samples, 4 weeks, 45% RH, 20° C.) | Activity of alkaline phosphatase after 4 weeks at 45% RH (alkaline phosphatase; freeze-dried samples, 4 weeks, 45% RH, 20° C., FIG. II) [%] | Activity of the protein after 4 weeks at 60% RH (in words) (alkaline phosphatase; freeze-dried samples, 4 weeks, 60% RH, 20° C.) | Activity of alkaline phosphatase after four weeks at 60% RH (alkaline phosphatase; freeze-dried samples, 4 weeks, 60% RH, 20° C., FIG. III) [%] | Activity of the protein after 6 days of storage at 0% RH and 60° C. (in words) (alkaline phosphatase; freeze-dried samples) | Tg (glass transition temperature) [1] [°C] | Behaviour of glass exposed to relative air humidity of 45% [2] | Cake obtained on freeze-drying [3]
O=C[C@H](O)[C@@H](O)[C@H](O)[C@H](O)CO [Glucose] | 0.8 ± 4.5 | 110.3 ± 10.6 | substantial decrease of the activity | 57.9±3.1 | substantial decrease of the activity | 46.3±16.1 | gone completely |  |  | 
OC[C@H]1O[C@H](O[C@H]2O[C@H](CO)[C@@H](O)[C@H](O)[C@H]2O)[C@H](O)[C@@H](O)[C@@H]1O [Trehalose] | −1.4 ± 2.8 | 95.9 ± 11.5 |  |  |  |  | gone completely | ~120 | first deliquesced (that is, the Tg falls below 20° C.) and then crystallized | collapsed cake
